Measurements from article PMC9930429, “Wogonin attenuates the pathogenicity of Streptococcus pneumoniae by double‐target inhibition of Pneumolysin and Sortase A” (Journal of Cellular and Molecular Medicine, 2023).

Molecular target: Pneumolysin (PLY) (Streptococcus pneumoniae, UniProt Q04IN8)
Experiment: biochemical

Sequence of Pneumolysin (PLY) (Q04IN8 2-471 limits assumed): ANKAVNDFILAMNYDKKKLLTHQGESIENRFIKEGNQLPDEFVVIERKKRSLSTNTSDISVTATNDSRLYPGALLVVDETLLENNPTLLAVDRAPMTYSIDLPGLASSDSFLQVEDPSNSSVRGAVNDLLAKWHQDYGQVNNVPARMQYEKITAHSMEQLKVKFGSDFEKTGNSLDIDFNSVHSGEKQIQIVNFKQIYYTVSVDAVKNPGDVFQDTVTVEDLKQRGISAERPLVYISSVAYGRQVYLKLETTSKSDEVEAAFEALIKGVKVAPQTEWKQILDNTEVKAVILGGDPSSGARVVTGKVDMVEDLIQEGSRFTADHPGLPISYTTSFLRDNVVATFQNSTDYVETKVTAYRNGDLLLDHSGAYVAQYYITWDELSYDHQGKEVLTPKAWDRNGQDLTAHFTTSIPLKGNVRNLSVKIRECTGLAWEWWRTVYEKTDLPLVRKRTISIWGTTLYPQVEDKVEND

`COc1c(O)cc(O)c2c(=O)cc(-c3ccccc3)oc12` [wogonin] gave an IC50 of 186 µM.
